Among the test systems are UO-31 renal; LXFL 529 NSCLC; HOP-62 NSCLC; UACC-62 melanoma; KM12 colon; SK-MEL-5 melanoma; SF-539 CNS; KM20L2 colon; DU-145 prostate; MDA-MB-231 breast.
Common to all, as to assay: NCI-60 cell line screen, 48 h

Molecules are shown by their SMILES. Where “and” joins values, the source holds several entries; their conditions need not be identical. Equal entries are not always repeated.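 Assay format: 96-well plates, 48-hour exposure. GI50 marks 50% less growth. The concentration for full growth arrest is given as TGI.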

For the compound `CC1CC2(CCC1OCc1ccccc1)OCCO2` (stereo not drawn), the TGI in the assay on UO-31 renal, in the assay on LXFL 529 NSCLC, in the assay on HOP-62 NSCLC, in the assay with UACC-62 melanoma, in the assay with KM12 colon and with SK-MEL-5 melanoma was above 100 µM in each case. In the assay with SF-539 CNS, this compound displayed a TGI above 100 µM.
As to `CCC[CH2][Sn]1([CH2]CCC)[O]C(=O)CN=Cc2ccccc2[O]1`, the GI50 with KM20L2 colon is 1.02 µM; in the assay with UO-31 renal it was 0.512 µM; in the assay with LXFL 529 NSCLC it was 0.102 µM; in the assay with HOP-62 NSCLC it was 4.01 µM; in the assay with UACC-62 melanoma, 0.197 µM; in the assay on KM12 colon it was 0.695 µM. Further, the GI50 was 1.49 µM with SK-MEL-5 melanoma and 1.3 µM in the assay with SF-539 CNS. In addition, the TGI in the assay on KM20L2 colon is 2.26 µM; with UO-31 renal, 1.77 µM; with LXFL 529 NSCLC, 0.236 µM; in the assay on HOP-62 NSCLC it was above 100 µM; with UACC-62 melanoma, 0.46 µM; with KM12 colon it was 2.18 µM. Moreover, the TGI in the assay on SK-MEL-5 melanoma and in the assay with SF-539 CNS was above 100 µM each time.
For the compound `O=CN1CCN(C=S)CC1`, the TGI in the assay with KM20L2 colon, in the assay on UO-31 renal, with LXFL 529 NSCLC, in the assay on HOP-62 NSCLC, with UACC-62 melanoma and in the assay on KM12 colon was above 100 µM throughout. Also, the TGI in the assay with SK-MEL-5 melanoma and with SF-539 CNS was above 100 µM throughout.
In the case of `NC(=O)c1c2c(cc3c(=O)c4ccccc4[nH]c13)CCCC2`, the TGI in the assay on KM20L2 colon, with UO-31 renal, with LXFL 529 NSCLC, with HOP-62 NSCLC, in the assay on UACC-62 melanoma and in the assay with KM12 colon was above 100 µM throughout. The TGI with SK-MEL-5 melanoma and in the assay with SF-539 CNS was above 100 µM in each case.
As to `C=CCN(CC=C)CC(C(C)=O)C(c1ccccc1)c1c(O)c2ccccc2oc1=O` (stereo not drawn), the TGI in the assay with KM20L2 colon was above 100 µM; in the assay on UO-31 renal, above 100 µM; with LXFL 529 NSCLC, above 100 µM; with HOP-62 NSCLC it was above 100 µM; in the assay with UACC-62 melanoma it was above 100 µM; in the assay on KM12 colon, 37.9 µM. Moreover, the TGI in the assay on SK-MEL-5 melanoma and in the assay on SF-539 CNS was above 100 µM throughout.
In the case of `NC1=C(Cl)C(=O)c2ccccc2C1=O`, the TGI came to 28 µM in the assay with KM20L2 colon; 29.9 µM in the assay with UO-31 renal; 25.2 µM in the assay with LXFL 529 NSCLC; 3.84 µM with DU-145 prostate; 32 µM with HOP-62 NSCLC; 2.76 µM with UACC-62 melanoma. Also, the TGI was 25.7 µM with KM12 colon, 2.09 µM in the assay with SK-MEL-5 melanoma and 20.8 µM in the assay on SF-539 CNS.
`CC(=O)O[C@H]1CC[C@@]2(C)C(=CC[C@@H]3C2CC[C@]2(C)Nc4[nH]ncc4CC32)C1` (stereo partly drawn): the TGI was 85.2 µM in the assay with KM20L2 colon; above 100 µM in the assay with UO-31 renal; 36.4 µM in the assay on LXFL 529 NSCLC; above 100 µM with HOP-62 NSCLC; 57.1 µM with UACC-62 melanoma; 31.1 µM in the assay with KM12 colon. The results for the TGI in the assay on SK-MEL-5 melanoma and in the assay with SF-539 CNS were 42.5 µM and 40.4 µM, respectively.
Consider `COC(=O)[C@]12CC=C3O[C@@H]4OC5(CCCCC5)O[C@@H]4[C@H]3C1C(=O)C=CC2=O` (stereo partly drawn), for which the TGI in the assay with KM20L2 colon was determined as 37.5 µM; with UO-31 renal, 30.8 µM; with LXFL 529 NSCLC it was 23.8 µM; with DU-145 prostate, 47.2 µM; in the assay with HOP-62 NSCLC it was 37.9 µM; in the assay with UACC-62 melanoma it was 30.2 µM. For the same compound, the TGI in the assay with MDA-MB-231 breast amounted to 32.8 µM; with KM12 colon, 20.7 µM; in the assay on SK-MEL-5 melanoma it was 32.8 µM; in the assay with SF-539 CNS, 34.8 µM.
For the compound `Cc1c(O)c(=O)ccn1CCO`, the TGI in the assay on KM20L2 colon, in the assay with UO-31 renal, in the assay on LXFL 529 NSCLC, with HOP-62 NSCLC, with UACC-62 melanoma and in the assay on KM12 colon was above 100 µM in each case. The TGI with SK-MEL-5 melanoma was above 100 µM.
In the case of `COc1ccccc1NC(=O)CC(=O)NNCC(=O)Nc1nnc(-c2ccccc2)o1`, the TGI in the assay on KM20L2 colon, in the assay with UO-31 renal, with LXFL 529 NSCLC, with HOP-62 NSCLC, in the assay with UACC-62 melanoma and in the assay on KM12 colon was above 100 µM each time. Besides, the TGI in the assay with SK-MEL-5 melanoma and in the assay with SF-539 CNS was above 100 µM throughout.
With `Cc1cc(NC(=O)NC(=O)c2ccccc2NC(=O)CN)ccc1Oc1ncc(Br)cn1`, the TGI with KM20L2 colon was 18.6 µM; in the assay with UO-31 renal it was 50.1 µM and > 100 µM; with LXFL 529 NSCLC it was 75 µM; with DU-145 prostate, 20.1 µM and 15.9 µM; in the assay with HOP-62 NSCLC, 4.18 µM and 22.3 µM; with UACC-62 melanoma, 19.8 µM and 15.4 µM. Also, the TGI with MDA-MB-231 breast is 5.17 µM and 14 µM; in the assay on KM12 colon, 34.5 µM and > 100 µM; with SK-MEL-5 melanoma, 43.9 µM and 26.8 µM; in the assay on SF-539 CNS it was 0.351 µM and 0.481 µM. In addition, the GI50 with UO-31 renal is 2.1 µM; with DU-145 prostate, 0.342 µM; with HOP-62 NSCLC, 0.47 µM; in the assay on UACC-62 melanoma, 0.112 µM; with KM12 colon it was 0.146 µM; in the assay on SK-MEL-5 melanoma it was 0.2 µM and 0.0445 µM. The GI50 in the assay on SF-539 CNS was 0.0762 µM and 0.0509 µM.
Take `COC(=O)C1=Cc2c(cc(OC)c(OC)c2OC)[C@H](c2ccc(OC)c(OC)c2OC)C1C(=O)OC` (stereo partly drawn): the TGI in the assay with KM20L2 colon, in the assay on UO-31 renal, in the assay with LXFL 529 NSCLC, with HOP-62 NSCLC, with UACC-62 melanoma and with KM12 colon was above 100 µM in each case. The TGI in the assay with SK-MEL-5 melanoma and in the assay on SF-539 CNS was above 100 µM throughout.
For `O=C(O)CCCNS(=O)(=O)c1ccc2ccccc2c1`, the TGI with KM20L2 colon, with UO-31 renal, in the assay with LXFL 529 NSCLC, in the assay with UACC-62 melanoma, with KM12 colon and with SK-MEL-5 melanoma was above 100 µM throughout. Also, in the assay on SF-539 CNS, the TGI is above 100 µM.
Turning to `CCOC(=O)C(=O)Nc1ccc(Cl)c(C(F)(F)F)c1`, the TGI with KM20L2 colon, in the assay with UO-31 renal, in the assay on LXFL 529 NSCLC, in the assay with HOP-62 NSCLC, in the assay with UACC-62 melanoma and with SK-MEL-5 melanoma was above 100 µM in each case. The TGI in the assay with SF-539 CNS was above 100 µM.
For the compound `COc1ccc2c(c1)CCCC1C3=NCCC3(C)CSC21` (stereo not drawn), the TGI is 72.7 µM with KM20L2 colon; above 100 µM in the assay on LXFL 529 NSCLC; above 100 µM in the assay on UACC-62 melanoma; above 100 µM in the assay with KM12 colon; above 100 µM in the assay on SK-MEL-5 melanoma; above 100 µM in the assay on SF-539 CNS.
For the compound `CCOC(=O)c1cnc2cc3cccccc3n2c1=O`, the TGI in the assay with KM20L2 colon, in the assay with UO-31 renal, in the assay on LXFL 529 NSCLC, in the assay with HOP-62 NSCLC, with UACC-62 melanoma and in the assay on KM12 colon was above 100 µM throughout. Moreover, in the assay with SF-539 CNS, the TGI was above 100 µM.
As to `O=C(O)c1ccc(C2C3C=CC(C3)C2[N+](=O)[O-])cc1` (stereo not drawn), the TGI with KM20L2 colon, in the assay on UO-31 renal, in the assay with LXFL 529 NSCLC, in the assay on HOP-62 NSCLC, with UACC-62 melanoma and in the assay with KM12 colon was above 100 µM throughout. The TGI with SK-MEL-5 melanoma and in the assay with SF-539 CNS was above 100 µM in each case.
As for `CC1=CC2CC(C)C1(C)CCc1ccoc12` (stereo not drawn), the TGI in the assay on KM20L2 colon, with UO-31 renal, in the assay on LXFL 529 NSCLC, with HOP-62 NSCLC, in the assay on UACC-62 melanoma and with KM12 colon was above 100 µM throughout. Besides, the TGI in the assay with SK-MEL-5 melanoma and with SF-539 CNS was above 100 µM each time.
For `Cc1cc2c(cc1Br)C1(C)CCC(C)C1(C)O2` (stereo not drawn), the TGI in the assay on KM20L2 colon, with UO-31 renal, in the assay with LXFL 529 NSCLC, in the assay with HOP-62 NSCLC, in the assay on UACC-62 melanoma and with KM12 colon was above 100 µM each time. The values for the TGI in the assay on SK-MEL-5 melanoma and with SF-539 CNS were 80.1 µM and above 100 µM, respectively.
With `COc1ccc(C(O)/C(=C/n2ccnc2)c2ccccc2)cc1OC` (stereo not drawn), the TGI with KM20L2 colon, in the assay with UO-31 renal, with HOP-62 NSCLC, in the assay on UACC-62 melanoma, with KM12 colon and with SK-MEL-5 melanoma was above 100 µM each time. The compound further had a TGI in the assay on SF-539 CNS above 100 µM.
Take `CCOC(=O)[C@H]1Nc2ccc(Cl)cc2[C@H]2c3ccccc3O[C@H]21`: the TGI in the assay on KM20L2 colon, in the assay on UO-31 renal, in the assay with LXFL 529 NSCLC, in the assay with HOP-62 NSCLC, with UACC-62 melanoma and with KM12 colon was above 100 µM each time. Also, the TGI in the assay on SK-MEL-5 melanoma and in the assay on SF-539 CNS was above 100 µM in each case.
For the compound `CN(CCN(C)C(=O)CCOS(C)(=O)=O)C(=O)CCOS(C)(=O)=O`, the TGI in the assay on KM20L2 colon, with LXFL 529 NSCLC, in the assay with HOP-62 NSCLC, in the assay with UACC-62 melanoma, with KM12 colon and with SK-MEL-5 melanoma was above 100 µM in each case. This compound also had a TGI in the assay on SF-539 CNS above 100 µM.
Consider `Cn1c(=O)oc2cc(C3CCC(=O)N3Cc3ccc(Cl)cc3)ccc21` (stereo not drawn), for which the TGI in the assay with KM20L2 colon, in the assay with UO-31 renal, with LXFL 529 NSCLC, in the assay with HOP-62 NSCLC, with UACC-62 melanoma and with KM12 colon was above 100 µM each time. Moreover, the TGI in the assay with SK-MEL-5 melanoma and in the assay with SF-539 CNS was above 100 µM throughout.
Take `COc1cc2c(c(OC)c1OC)-c1ccc(SC)c(=O)cc1C(CC(=O)Oc1cccc(C#N)c1)C2` (stereo not drawn): the TGI in the assay on KM20L2 colon was 0.443 µM; in the assay on UO-31 renal it was above 100 µM; in the assay with LXFL 529 NSCLC, above 100 µM; in the assay on HOP-62 NSCLC, above 100 µM; in the assay with UACC-62 melanoma, 5.32 µM; in the assay on KM12 colon it was 4.83 µM. For the same compound, the TGI in the assay with SK-MEL-5 melanoma was 40.8 µM; with SF-539 CNS, 0.602 µM.

These data come from PubChem BioAssay (NCI).
